In patent US20210107874A1, “PHARMACEUTICAL FORMULATION OF CROTONYLAMINOPYRIDINE SALT” (priority 2017, published 2021):
Structures can show the parent of a compound that is named as a salt.

Experiments:
[1] = Solubility of synthesized tartrate salt and free base of compound 4; type: physicochemical; conditions: synthesized tartrate salt; read-out: solubility (can be dissolved)
Protocol: The free base of compound 4 has a solubility of 0.8 mg/ml

[2] = test system: Cooperia oncophora; experiment: In vivo efficacy in challenged calves, percent reduction of nematodes; conditions: subcutaneous injection
Protocol: (§1) Calves of 2-6 months of age were challenged with Ostertagia ostertagi (approx. 20,000 larvae L3/calf) on Day 0 and Cooperia oncophora (approx. 20,000 larvae L3/calf) on Day 1 by oral drench. At day 28, animals were treated by subcutaneous injection at a dose of 0.5 mg/kg (resp. 0.75, 1, 1.5 or 2.5 mg/kg) of a solution of compound 5. On days 35-37 animals were necropsied for extraction and counting of nematodes present. Efficacy was calculated as the percent reduction of nematodes compared to the control group. For calculation the geometric mean of the nematode numbers in treatment and control group was determined (7 animals in treatment group, 8 animals in control group). The solution A used for injection contained in 1 ml: compound 5 (100 mg), L-tartaric acid 52.6 mg, propylene glycol 400 mg, benzyl alcohol 20 mg, water for injection up to 1 ml. A control group was treated by injection of vehicle only. The solution B used for injection contained in 1 ml: (50 mg Compound 5; 24.74 mg L-tartaric acid, water for injection up to 1 ml).

[3] = test system: Ostertagia ostertagi; experiment: as above; conditions: subcutaneous injection
Protocol: as §1

[4] = Solution A (with propylene glycol), 0.5 mg/kg bodyweight
[5] = Solution A (with propylene glycol), 1.5 mg/kg bodyweight
[6] = Solution A (with propylene glycol), 2.5 mg/kg bodyweight
[7] = Solution B (without propylene glycol), 0.75 mg/kg bodyweight
[8] = Solution B (without propylene glycol), 1 mg/kg bodyweight

Structure (SMILES)	solubility [1] [mg/mL]	reduction of C. oncophora [2, 4] [%]	reduction of C. oncophora [2, 5] [%]	reduction of C. oncophora [2, 6] [%]	reduction of C. oncophora [2, 7] [%]	reduction of C. oncophora [2, 8] [%]	reduction of O. ostertagi [3, 4] [%]	reduction of O. ostertagi [3, 5] [%]	reduction of O. ostertagi [3, 6] [%]	reduction of O. ostertagi ([3]; Solution B (without propylene glycol), 0.5 mg/kg bodyweight) [%]	reduction of O. ostertagi [3, 7] [%]	reduction of O. ostertagi [3, 8] [%]
CCOc1cc(NCCNC(=O)/C=C/C(F)(F)F)ccn1 [tartrate salt of compound 4, tartrate salt of (E)-N-[2-[(2-ethoxy-4-pyridyl)amino]ethyl]-4,4,4-trifluoro-but-2-enamide]	145	–	–	–	–	–	–	–	–	–	–	–
COc1cc(NCCNC(=O)/C=C/C(C)(F)F)ccn1 [tartrate salt of compound 5]	–	97.0	100	100	94.0	96.8	98.7	100	99.8	78.6	99.8	99.9
